This note sets out measurements from ChEMBL document CHEMBL4414648, “Novel Benzohydroxamate-Based Potent and Selective Histone Deacetylase 6 (HDAC6) Inhibitors Bearing a Pentaheterocyclic Scaffold: Design, Synthesis, and Biological Evaluation” (J Med Chem, 2019).

Structures are written as SMILES. Some results are limits rather than exact numbers.

One data set relates to PBMC. Kind of data set: Cytotoxicity against human PBMC cells after 72 hrs by CellTiter 96 aqueous one solution assay. In kind it is cell-based.
Data set [1] can be described thus: Selectivity ratio of IC50 for C-terminal GST-tagged human HDAC5 to IC50 for human N-terminal GST-tagged HDAC6 expressed in baculovirus infected sf9 insect cells.
Data set [2] is described as follows: Stability in human plasma assessed as parent compound remaining at 100 uM after 4 hrs by LC-MS/MS analysis. It is filed as ADME, cell-free. Particulars: read-out: Stability; call rule not given here.
A short description of data set [3]: Selectivity ratio of IC50 for C-terminal His-tagged human HDAC9 (604 to 1066 residues) expressed in baculovirus infected sf9 insect cells to IC50 for human N-terminal GST-tagged HDAC6 expressed in baculovirus infected sf9 insect cells.
Data set [4] can be described thus: Stability in rat plasma assessed as parent compound remaining at 100 uM after 4 hrs by LC-MS/MS analysis. In kind it is ADME, cell-free. Particulars: read-out: Stability.
The nature of data set [5]: Stability in rat liver S9 fraction assessed as parent compound remaining at 5 uM after 90 mins in presence of NADPH by LC-MS/MS analysis. In kind it is ADME, subcellular. Particulars: read-out: Stability.
The nature of data set [6]: Selectivity ratio of IC50 for N-terminal GST-tagged human HDAC7 (518 to end residues) expressed in baculovirus infected sf9 insect cells to IC50 for human N-terminal GST-tagged HDAC6 expressed in baculovirus infected sf9 insect cells.
A short description of data set [7]: Selectivity ratio of IC50 for N-terminal His-tagged human HDAC11 expressed in baculovirus expression system to IC50 for human N-terminal GST-tagged HDAC6 expressed in baculovirus infected sf9 insect cells.
The nature of data set [8]: Selectivity ratio of IC50 for human HDAC4 expressed in baculovirus infected sf9 insect cells to IC50 for human N-terminal GST-tagged HDAC6 expressed in baculovirus infected sf9 insect cells.
A short description of data set [9]: Selectivity ratio of IC50 for C-terminal His-tagged human HDAC8 expressed in baculovirus infected sf9 insect cells to IC50 for human N-terminal GST-tagged HDAC6 expressed in baculovirus infected sf9 insect cells.
In a further data set the test system is 697. Kind of data set: Cytotoxicity against human 697 cells after 48 hrs by CellTiter 96 aqueous one solution assay. In kind it is cell-based. The following applies: Homo sapiens, 697, 48 h.
Data set [10] can be described thus: Stability in human liver S9 fraction assessed as parent compound remaining at 5 uM after 90 mins in presence of NADPH by LC-MS/MS analysis. In kind it is ADME, subcellular. The following applies: read-out: Stability.
A short description of data set [11]: Selectivity ratio of IC50 for N-terminal Flag-tagged human HDAC10 (2 to 631 residues) expressed in baculovirus infected sf9 insect cells to IC50 for human N-terminal GST-tagged HDAC6 expressed in baculovirus infected sf9 insect cells.
In data set [12] the target is T1, Protein deacetylase HDAC6 (Homo sapiens, UniProt Q9UBN7).
T1 sequence (Q9UBN7 whole entry): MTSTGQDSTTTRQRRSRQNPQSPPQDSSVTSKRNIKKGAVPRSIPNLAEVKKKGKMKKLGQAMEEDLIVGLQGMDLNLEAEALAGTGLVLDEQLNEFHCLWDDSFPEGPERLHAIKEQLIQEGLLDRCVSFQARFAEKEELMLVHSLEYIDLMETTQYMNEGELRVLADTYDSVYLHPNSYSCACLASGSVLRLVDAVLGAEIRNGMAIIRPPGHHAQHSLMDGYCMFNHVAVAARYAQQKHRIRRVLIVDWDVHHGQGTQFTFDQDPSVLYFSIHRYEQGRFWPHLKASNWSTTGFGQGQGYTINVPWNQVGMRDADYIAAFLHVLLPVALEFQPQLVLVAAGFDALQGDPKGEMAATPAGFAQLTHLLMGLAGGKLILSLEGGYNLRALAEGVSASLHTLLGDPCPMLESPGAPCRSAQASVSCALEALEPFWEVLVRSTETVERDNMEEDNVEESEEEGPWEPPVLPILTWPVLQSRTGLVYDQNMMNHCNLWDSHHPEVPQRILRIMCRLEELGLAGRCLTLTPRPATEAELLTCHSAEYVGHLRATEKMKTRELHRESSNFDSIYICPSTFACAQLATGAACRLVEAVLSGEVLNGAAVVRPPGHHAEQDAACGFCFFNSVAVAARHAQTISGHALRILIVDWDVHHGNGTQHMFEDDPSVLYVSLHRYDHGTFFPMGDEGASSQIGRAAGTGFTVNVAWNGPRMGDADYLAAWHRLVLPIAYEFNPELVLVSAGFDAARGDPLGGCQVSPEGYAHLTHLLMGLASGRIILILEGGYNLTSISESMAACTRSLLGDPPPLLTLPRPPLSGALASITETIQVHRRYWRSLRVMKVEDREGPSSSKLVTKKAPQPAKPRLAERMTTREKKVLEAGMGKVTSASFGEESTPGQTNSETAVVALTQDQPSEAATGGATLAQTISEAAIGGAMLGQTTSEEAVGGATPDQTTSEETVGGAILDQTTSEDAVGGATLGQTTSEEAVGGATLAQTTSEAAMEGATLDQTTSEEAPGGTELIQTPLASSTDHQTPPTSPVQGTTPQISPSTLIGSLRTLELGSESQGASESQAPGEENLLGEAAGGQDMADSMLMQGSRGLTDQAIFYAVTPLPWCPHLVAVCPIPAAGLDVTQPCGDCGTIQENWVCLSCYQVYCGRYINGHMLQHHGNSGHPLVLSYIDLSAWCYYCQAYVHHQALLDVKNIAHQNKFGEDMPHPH
Description: biochemical.
Description: Inhibition of recombinant full length human N-terminal GST-tagged HDAC6 expressed in baculovirus infected sf9 insect cells pretreated with compound followed by Fluor de Lys deacetylase substrate addition by fluorescence method

The subject of a further data set is Histone deacetylase. Kind of data set: Inhibition of HDAC in human 697 cells assessed as increase in H3 acetylation at 1000 nM incubated for 16 hrs by ELISA. Particulars: human, 697, 16 h, 1 µM. It is filed as cell-based. On the technique in general: An ELISA detects its analyte on a solid surface through an enzyme-linked reagent.

As a reminder, the IC50 is the concentration that inhibits the measured activity by half. Lower therefore signals higher potency. In the case of `Cn1c(Sc2c(F)cc(C(=O)NO)cc2F)nnc1-c1ccc(CN2CCCCC2)cc1`, the IC50 in the data set on PBMC and in the data set on 697 was more than 1000 nM throughout. Besides, the “Ratio IC50” value in data set [1] is listed as 101; in data set [3] it was 36; in data set [6], 83; in [7], 342; in [8], 126; in data set [9] it was 32. The “Ratio IC50” value in data set [11] was 814. Besides, the figures for the remaining at 4 h, 100 µM in [2] and in [4] were 90% and 75%, respectively. In addition, the remaining at […], 5 µM came to 74% in data set [5] and 69% in [10].

As to `Cc1cc(-c2nnc(Sc3c(F)cc(C(=O)NO)cc3F)n2C)nn1C`, the results for the IC50 (in the data set with PBMC; in data set [12]; in the data set on 697) were more than 1000 nM, 6 nM and more than 1000 nM, respectively. For the same molecule, the “Ratio IC50” value was determined as 42 in data set [1]; 24 in data set [3]; 48 in data set [6]; 294 in [7]; 48 in data set [8]; 19 in data set [9]. Also, the “Ratio IC50” value in data set [11] stood at 497. Besides, the remaining at 4 h, 100 µM in [2] stood at 92%; in [4], 80%. Further, the results for the remaining at […], 5 µM in data set [5] and in [10] were 30% and 76%, respectively. Moreover, the “inhibition (INH)” value with Histone deacetylase is recorded as “Active”.

As for `Cn1c(Sc2c(F)cc(C(=O)NO)cc2F)nnc1-c1cccc(CN2CCCCCC2)c1`, the values for the half-inhibitory concentration (IC50) (in the data set on PBMC; in data set [12]; in the data set with 697) were more than 1000 nM, 10 nM and more than 1000 nM, respectively. In addition, the “Ratio IC50” value in [1] is reported as 82; in data set [3], 23; in data set [6], 79; in [7] it was 169; in [8], 86; in data set [9], 41. For the same molecule, the “Ratio IC50” value in data set [11] amounted to 310. In addition, the results for the remaining at 4 h, 100 µM in data set [2] and in data set [4] were 91% and 85%, respectively. In addition, the remaining at […], 5 µM came to 55% in data set [5] and 78% in [10]. Besides, in the data set on Histone deacetylase, the “inhibition (INH)” value was “Active”.

On to `Cn1c(Sc2c(F)cc(C(=O)NO)cc2F)nnc1-c1cccs1`, for which the IC50 with PBMC and in the data set with 697 was more than 1000 nM throughout. The “Ratio IC50” value in [1] is given as 171; in data set [3] it was 55; in [6], 61; in [7], 254; in data set [8], 155; in [9] it was 21. For the same molecule, in data set [11], the “Ratio IC50” value was 763. The remaining at 4 h, 100 µM in [2] was found to be 99%; in data set [4], 87%. For the same molecule, the values for the remaining at […], 5 µM in data set [5] and in [10] were 71% and 83%, respectively. For the same molecule, in the data set on Histone deacetylase, the “inhibition (INH)” value was “Active”.

For `O=C(NO)c1cc(F)c(Cn2nnc(-c3ccco3)n2)c(F)c1`, the IC50 with PBMC is more than 1000 nM; in data set [12], 3 nM; in the data set on 697, more than 1000 nM. Further, the “Ratio IC50” value was 194 in data set [1]; 192 in [3]; 330 in [6]; 259 in data set [7]; 219 in data set [8]; 210 in [9]. Besides, in [11], the “Ratio IC50” value was determined as 876. In addition, the remaining at 4 h, 100 µM in [2] and in data set [4] was 100% throughout. The remaining at […], 5 µM in [5] was 68%; in [10], 94%. Further, in the data set on Histone deacetylase, the “inhibition (INH)” value is given as “Active”.

Regarding `O=C(NO)c1cc(F)c(Cn2nnc(-c3ccccn3)n2)c(F)c1`, the concentration for half-maximal inhibition (IC50) with PBMC and in the data set with 697 was more than 1000 nM each time. Further, the “Ratio IC50” value in data set [1] is 141; in data set [3] it was 102; in data set [6], 119; in data set [7] it was 696; in data set [8], 139; in data set [9], 138. Moreover, the “Ratio IC50” value in [11] was 1463. Moreover, the remaining at 4 h, 100 µM in [2] came out at 96%; in data set [4], 87%. Also, the remaining at […], 5 µM turned out to be 97% in data set [5] and 86% in data set [10].

In the case of `O=C(NO)c1cc(F)c(Cc2nnc(-c3ccncc3)s2)c(F)c1`, the IC50 with PBMC and in the data set with 697 was more than 1000 nM in each case. For the same molecule, the “Ratio IC50” value in [1] came out at 67; in [3], 44; in [6], 77; in data set [7] it was 291; in data set [8], 101; in [9] it was 139. Further, the “Ratio IC50” value in data set [11] is recorded as 507. The results for the remaining at 4 h, 100 µM in [2] and in data set [4] were 93% and 84%, respectively. Besides, the remaining at […], 5 µM in data set [5] was found to be 32%; in data set [10] it was 68%. Besides, in the data set with Histone deacetylase, the “inhibition (INH)” value is “Active”.

Turning to `O=C(NO)c1ccc(Cn2nnc(-c3ncccn3)n2)cc1`, the IC50 with PBMC is more than 1000 nM; in data set [12], 7 nM; in the data set with 697 it was more than 1000 nM. For the same molecule, the “Ratio IC50” value in data set [1] was found to be 721; in data set [3], 246; in [6], 146; in data set [7] it was 103; in data set [8] it was 665; in data set [9] it was 46. Besides, the “Ratio IC50” value in data set [11] stood at 111. In addition, the remaining at 4 h, 100 µM in [2] amounted to 76%; in data set [4], 99%. Besides, the remaining at […], 5 µM in data set [5] is 99%; in [10] it was 83%.

Take `Nc1ccc(-c2nnn(Cc3c(F)cc(C(=O)NO)cc3F)n2)cc1`: the IC50 with PBMC is more than 1000 nM; in [12] it was 3 nM; with 697, more than 1000 nM. Besides, the “Ratio IC50” value came out at 144 in data set [1]; 118 in data set [3]; 325 in data set [6]; 86 in data set [7]; 162 in [8]; 230 in [9]. Further, the “Ratio IC50” value in data set [11] is on record as 138. Further, the values for the remaining at 4 h, 100 µM in data set [2] and in data set [4] were 88% and 77%, respectively. For the same molecule, the remaining at […], 5 µM in [5] stood at 48%; in data set [10], 74%. For the same molecule, the “inhibition (INH)” value with Histone deacetylase was “Active”.

In the case of `Cn1c(Sc2c(F)cc(C(=O)NO)cc2F)nnc1-c1ncccc1F`, the IC50 in the data set on PBMC and with 697 was more than 1000 nM throughout. Moreover, the “Ratio IC50” value came out at 54 in [1]; 24 in [3]; 38 in [6]; 250 in data set [7]; 53 in data set [8]; 64 in data set [9]. Moreover, the “Ratio IC50” value in data set [11] is given as 432. Moreover, the remaining at 4 h, 100 µM was 97% in data set [2] and 100% in data set [4]. Moreover, the results for the remaining at […], 5 µM in data set [5] and in [10] were 70% and 80%, respectively. For the same molecule, the “inhibition (INH)” value in the data set with Histone deacetylase is on record as “Active”.
